{"source": "patent US20230405078A1", "about": "“DETECTION AND TREATMENT OF INTESTINAL FIBROSIS” (THE REGENTS OF THE UNIVERSITY OF CALIFORNIA, priority 2020, published 2023)", "format_in_all_cases": "in vivo", "key": {"Salmonella-infected mice": {"test_system": "Salmonella-infected mice", "assay": "Salmonella-mediated cecal fibrosis in mice", "conditions": "Salmonella-infected mice with lentiviral elafin overexpression", "protocol": "Eight-week-old male and female 129Sv/J mice (#000691, Jackson Laboratories) were administered 20 mg streptomycin via oral gavage. Twenty-four hours later, the mice were orally infected with Salmonella typhimurium SL1344 strain 1×10^8 colony-forming units by oral gavage to induce cecal fibrosis.\nOrigene or miR205-5p-OFF lentivrus (mm35328) or miR205-5p-OE lentivirus (mm15214) from Applied Biological Materials on day 14. Some infected mice received oral antibiotics mixture in drinking water ad libitum from day 14 to day 21 to suppress intestinal microbiota. […]\nH&E and Masson Trichrome (MT) staining were performed as described previously. Microphotographs were recorded at multiple locations and scored by two investigators blindly. Intestinal injuries were scored (0-12). The severity of intestinal fibrosis was assessed by MT staining and scored (0-3). […]\nTotal RNA was isolated by an RNeasy kit (#74104, Qiagen) and reverse transcribed into cDNA by a high-capacity cDNA reverse transcription kit (#4368813, ThermoFisher). […] Relative mRNA/miRNA quantification was performed by comparing test groups and control groups after normalization with endogenous control genes. The fold changes are expressed as 2^ΔΔCt. […]\n(§1) Overall disease activity (ODA) was calculated by % change of histology and fibrosis scores and colonic mRNA expression of fibrosis- and inflammation-related genes. […]"}, "HFD-treated male mice [1]": {"test_system": "HFD-treated male mice", "assay": "Leptin sensitivity test in HFD-treated male mice", "protocol": "FIG. 35. Elafin-dependent serum exosome-mediated inhibition of hyperphagia and hyperglycemia was reversed by miR181b-5p and miR219-5p inhibitors. (A) Serum exosome transplantation to HFD-treated mice. The miRNA inhibitors were injected on the same day as exosome injection. (B) Change in fat mass. (C) No significant change in body weight among all groups over 7 days after miRNA inhibitor and exosome injection. (D) Fasting blood glucose levels 7 days after exosome and miRNA inhibitor injection. (E) Daily food consumption per mouse. (F) Serum leptin levels measured on day seven post-injection. (G, H) Leptin, Cd36, and adiponectin mRNA expression in the mesenteric fat and epididymal fat of HFD-treated mice with exosome and miRNA inhibitor injection. (I) Leptin sensitivity test: The RD/HFD-treated mice were injected with leptin for 3 days after elafin-LV injection. (J, K) Daily food consumption and fasting blood glucose levels at 24 h after the last leptin injection. Each group consists of 8 mice.\nLeptin sensitivity tests were performed by injecting 1 μg/kg leptin intraperitoneally (#450-31, Peprotech) daily for 3 days. At the endpoint of the experiments, mice were fasted for 6 h and tested for fasting blood glucose and cholesterol levels with a drop of tail vein blood using Freestyle Lite blood glucose meter and test strips (Abbott Diabetes Care) and Accutrend Plus meter and test strips (Roche), respectively. The oral glucose tolerance test (OGTT) was performed by feeding D-glucose (1 g/kg) to fasted mice via oral gavage, and the blood glucose level was measured 2 h after oral glucose feeding. Blood glucose and cholesterol levels are presented as mg/dL. Measurements of fasting blood glucose levels, blood total cholesterol levels, food consumption, and fat/lean mass (EchoMRl) were performed as described in our previous report.\nFor inhibition of miRNAs, control (Y100199006), miR-181b-5p (YC10201288-FZA), and miR-219-5p (YC10201241-FZA) inhibitors (Qiagen) were dissolved in PBS. […]"}, "[2]": {"test_system": "HFD-treated elafin-overexpressing mice", "assay": "Intraperitoneal IL-1β and IFNγ injection to HFD-treated elafin-overexpressing mice", "conditions": "for effect on elafin-mediated inhibition of fat mass and fasting blood glucose levels / effect on elafin-mediated inhibition of liver steatosis: mouse, in vivo", "from_the_text": "FIG. 33. Circulating immune cells mediated the anti-obesity effects of elafin in HFD-treated male mice. (A) Circulating immune cell mRNA expression in the HFD-treated mice with and without lentiviral elafin overexpression. (B) Splenocyte transplantation to HFD-treated Rag−/− mice. (C) Physiological parameters of HFD-treated Rag−/− recipient mice after splenocyte transplantation. Transplantation of splenocytes from elafin-overexpressing donors caused reduced fat mass, body weight, and food consumption and increased leptin levels in the Rag−/− recipient mice. (D) Mesenteric fat and epididymal fat tissue mRNA expression in HFD- treated mice with and without lentiviral elafin overexpression. (E) Determination of the physiological effects of intraperitoneal IL-1β and IFNγ injection to HFD-treated elafin-expressing mice. IL-1β or IFNγ was injected on the same day as elafin-expressing lentivirus injection. (F) Daily food consumption, (G) serum leptin levels. (H) Change in body weight. (I) Change in fat mass. (J) Fasting blood glucose levels. Each group consists of 8 mice.\nSome groups were injected with IL-1β protein 2.5 μg per mouse (#211-11B Peprotech) or IFNγ protein 5 μg per mouse (#315-05 Peprotech) intraperitoneally to increase circulating IL-1β or IFNγ levels."}, "HFD-treated male mice [3]": {"test_system": "HFD-treated male mice", "assay": "Oral and subcutaneous administration of modified elafin to HFD-treated male mice", "conditions": "14 days", "protocol": "FIG. 36. Subcutaneous and oral administration of modified elafin inhibited hyperphagia and hyperglycemia in HFD-treated male mice. (A) Elafin (1 mg/kg) was injected into RD-treated male mice subcutaneously. Tail-vein blood samples were collected for elafin ELISA. This mouse experiment was intended for the determination of basic pharmacokinetics of elafin, but not the determination of physiology of elafin. (B) HFD-treated mice were treated with either oral gavage of Elafin-Eudragit formulation (10 mg/kg) daily or subcutaneous injection of PEG-elafin (3.25 mg/kg) every 48 h for 14 days. Serum elafin levels. (C) Serum leptin levels. (D) Serum IFNγ and IL-1β levels. (E) Daily food consumption. (F) Change in fat mass. (G) Change in body weight over 14 days. (H) Fasting blood glucose levels. Each group consists of 8 mice.\nOral and subcutaneous administration of modified elafin to mice. Eight-week-old male c57BL/6J (JAX #000664) mice were fed with HFD for 8 weeks to induce obesity and hyperglycemia, followed by administration of Elafin-Eudragit formulation (10 mg/kg) via oral gavage daily or subcutaneous injection of polyethylene glycol conjugated (PEGylated) elafin (3.25 mg/kg) every 48 h to mice for 14 days. Oral Elafin-Eudragit formulation was made by Dr. Xingguo Cheng at the Southwest Research Institute (SWRI), Texas. Elafin was coated with Eudragit FS3OD polymer. […] Elafin-Eudragit was packaged into microparticles using an SWRI-patented spinning disk atomization technology. This packaging prevented leakage of elafin in acidic, aqueous solution. The oral elafin-Eudragit formulation was dissolved in mildly acidified (pH 5) water containing 0.5% hydroxypropyl methylcellulose (HPMC). PEGylated elafin was made by conjugation to methoxyl-PEG12 (New England Peptide Company). Control groups received either oral Eudragit-HPMC solution or subcutaneous PEG injection."}, "TNBS-treated mice": {"test_system": "TNBS-treated mice", "assay": "TNBS-associated colonic fibrosis in mice", "conditions": "TNBS-treated mice", "protocol": "Eight-week-old male and female CD-1 mice (#022, Charles River Laboratories) were injected with 50pL TNBS solution (to induce colonic fibrosis) or 30% ethanol (vehicle) via enema weekly for five weeks. After the last TNBS injection, the mice were held for two additional weeks to develop colonic fibrosis. Some of the mice were injected with 5 μg/mouse of either control (PS100001) or elafin-expressing construct (RC203136) from\nOrigene via InvivoJetPEI transfection reagent (201-10G, Polyplus) intracolonically on the 9th day after the last TNBS injection or five days before the end of experiment.\nSome of the mice received either a single intraperitoneal injection of 10 mg/kg anti-tumor necrosis factor-alpha (anti-TNFα) neutralizing antibody (6E0058, BioXCell) or oral antibiotic mixture in drinking water ad libitum from the 9th day after the last TNBS injection to the endpoint of the experiment. The antibiotics mixture contains kanamycin (0.4 mg/mL), gentamicin (0.035 mg/mL), colistin (850 U/mL), metronidazole (0.215 mg/mL), and vancomycin (0.045 mg/mL), which was routinely used by our laboratory for suppressing intestinal microbiota.\nFor PAR1/2 activation, some of the mice were injected with DMSO (50pL/mouse), 5 mg/kg PAR1 agonist TRAP-6, or 5 mg/kg PAR2 agonist SLIGKV-NH2 via enema on the 9th, 11th, and 13th days after the last TNBS injection.\nFor miRNA inhibition, some of the mice were injected with 5 mg/kg either control inhibitor or miR205-5p power inhibitor (Qiagen) […] via enema on the 9th, 11th, and 13th days after the last TNBS injection.\nFor Zeb1 manipulation, some mice received a single intraperitoneal injection (10^7 infectious units/mouse) of control lentivirus (PS100064V), Zeb1-overexpressing lentivirus (MR223095L2V), or Zeb1-shRNA lentivirus (TL513177V) from Origene, Inc. nine days after the last TNBS injection.\nDr. Xingguo Cheng produced the oral elafin-Eudragit-FS3OD formulation via a material transfer agreement (UCLA MTA2019-00000337) with the Southwest Research Institute (SWRI) in Texas. […] The mice were fed with either control-Eudragit or elafin-Eudragit in mildly acidified (pH 5) water containing 0.5% hydroxypropyl methylcellulose (HPMC) daily via oral gavage during the last five days of the experiment.\nH&E and Masson Trichrome (MT) staining were performed as described previously. Microphotographs were recorded at multiple locations and scored by two investigators blindly. Intestinal injuries were scored (0-12). The severity of intestinal fibrosis was assessed by MT staining and scored (0-3). ZEB1 immunohistochemistry was performed using an anti-ZEB1 antibody (HPA027524, Sigma).\nTotal RNA was isolated by an RNeasy kit (#74104, Qiagen) and reverse transcribed into cDNA by a high-capacity cDNA reverse transcription kit (#4368813, ThermoFisher). PCR reactions were run with Taq Universal SYBR Green Supermix (1725120, Bio-Rad) and TaqMan real-time PCR assays (ThermoFisher) in a Bio-Rad CFX384 system. For the determination of miRNA expression, RNA was converted to cDNA using miRCURY LNA RT kit. PCR reactions were run with miRCURY LNA SYBR Green PCR kit and miRCURY LNA PCR assays (Qiagen). Relative mRNA/miRNA quantification was performed by comparing test groups and control groups after normalization with endogenous control genes. The fold changes are expressed as […]. […]\nas §1"}}, "note": "Where no end group is shown, it is not given here."}
{"molecule": "CC[C@H](C)[C@H](NC(=O)[C@H](CC1CCCCC1)NC(=O)c1ccno1)C(=O)NCc1cccc(C(=O)N2CCC(CN)CC2)c1", "note": "[GB110, reference compound]", "values": [{"measurement": "effect on elafin-mediated inhibition of cecal fibrosis / collagen deposition and fibrogenic mRNA expression", "setting": "Salmonella-infected mice", "value": "reversed"}]}
{"molecule": "Leptin: leptin (#450-31, Peprotech) injected intraperitoneally", "values": [{"measurement": "food consumption in HFD-treated elafin-overexpressing mice", "setting": "HFD-treated male mice [1]; leptin 1 μg/kg intraperitoneally daily for 3 days", "value": "further reduced"}, {"measurement": "decrease of fasting blood glucose in HFD-treated elafin-overexpressing mice", "setting": "HFD-treated male mice [1]; leptin daily for 3 days", "value": "not affected"}]}
{"molecule": "IL-1β: IL-1β protein (Peprotech)", "values": [{"measurement": "effect on elafin-mediated inhibition of fat mass and fasting blood glucose levels", "setting": "[2]", "value": "reversed"}, {"measurement": "effect on elafin-mediated inhibition of liver steatosis", "setting": "[2]", "value": "reversed"}]}
{"molecule": "IFNγ: IFNγ protein (Peprotech)", "values": [{"measurement": "food consumption in elafin-overexpressing mice", "setting": "[2]; IL-1β 2.5 μg or IFNγ 5 μg per mouse intraperitoneally", "value": "moderately increased"}, {"measurement": "effect on elafin-mediated inhibition of fat mass and fasting blood glucose levels", "setting": "[2]", "value": "reversed"}, {"measurement": "effect on elafin-mediated inhibition of liver steatosis", "setting": "[2]", "value": "reversed"}, {"measurement": "effect on elafin-mediated decrease of food consumption and fasting blood glucose levels", "setting": "HFD-treated male mice [1]; mouse, in vivo", "value": "reversed"}]}
{"molecule": "PEG-Elafin: elafin conjugated to methoxyl-PEG12, for subcutaneous injection (AQEPVKGPVSTKPGSCPIILIRCAMLNPPNRCLKDTDCPGIKKCCEGSCGMACFVPQ; ends and bridges not checked; also: conjugated to methoxyl-PEG12, site not given here; UniProt P19957 61-117, looked up)", "values": [{"measurement": "circulating IFNγ levels", "setting": "HFD-treated male mice [3]", "value": "significantly reduced"}, {"measurement": "circulating leptin levels", "setting": "HFD-treated male mice [3]", "value": "significantly increased"}, {"measurement": "fasting blood glucose levels", "setting": "HFD-treated male mice [3]", "value": "significantly reduced"}, {"measurement": "fat mass gain", "setting": "HFD-treated male mice [3]", "value": "significantly reduced"}, {"measurement": "food consumption", "setting": "HFD-treated male mice [3]", "value": "significantly reduced"}, {"measurement": "liver steatosis", "setting": "HFD-treated male mice [3]", "value": "significantly reduced"}, {"measurement": "serum elafin levels versus lentiviral elafin overexpression", "setting": "HFD-treated male mice [3]; Elafin-Eudragit 10 mg/kg oral daily, PEG-elafin 3.25 mg/kg s.c. every 48 h", "value": "comparable"}]}
{"molecule": "TRAP-6 [PAR1 agonist]", "values": [{"measurement": "colonic injury and fibrosis", "setting": "TNBS-treated mice", "value": "did not affect"}]}
